According to article PMC11944513, “Investigation on Human Carbonic Anhydrase IX and XII Inhibitory Activity and A549 Antiproliferative Activity of a New Class of Coumarinamides” (Pharmaceuticals, 2025):

What was measured:
h-CA I = h-CA I (Homo sapiens, UniProt P00915); test: stopped-flow CO2 hydrase assay, h-CA I
h-CA II = h-CA II (Homo sapiens, UniProt P00918); test: stopped-flow CO2 hydrase assay, h-CA II
h-CA XII = h-CA XII (Homo sapiens, UniProt O43570); test: stopped-flow CO2 hydrase assay, h-CA XII
h-CA XII, sequence (O43570 25-354): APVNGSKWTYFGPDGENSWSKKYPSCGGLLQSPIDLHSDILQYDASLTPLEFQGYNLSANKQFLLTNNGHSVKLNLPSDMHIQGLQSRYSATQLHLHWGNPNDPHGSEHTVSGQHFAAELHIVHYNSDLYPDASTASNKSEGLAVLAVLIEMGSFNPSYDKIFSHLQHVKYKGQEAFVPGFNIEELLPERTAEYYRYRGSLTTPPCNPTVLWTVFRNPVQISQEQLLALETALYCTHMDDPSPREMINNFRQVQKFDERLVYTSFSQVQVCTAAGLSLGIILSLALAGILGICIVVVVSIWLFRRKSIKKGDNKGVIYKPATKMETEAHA

[1] = test system: normal bronchial epithelial cells (BEAS-2B); test: cell viability (MTT assay), BEAS-2B; type: cell-based, human; settings: for IC50: Homo sapiens, BEAS-2B, 48 h exposure, nonlinear regression, predictive estimates
Description: Human bronchial epithelial (BEAS-2B; CRL-3588) and human lung carcinoma (A549; CCL-185) cell lines were obtained from ATCC®. BEAS and A549 cells were maintained in complete RPMI 1640 (Merck, Darmstadt, Germany) at 37 °C and 5% CO2. The medium was supplemented with 10% heat-inactivated fetal bovine serum (FBS), 1% penicillin/streptomycin and 1% sodium pyruvate.
(§1) Cells were seeded at different densities according to the different experimental techniques performed (MTT assay and cell cycle analysis) and left to adhere for 24 h. Next, the medium was removed, and cells were treated with tested compounds, dissolved in dimethyl sulfoxide (DMSO) to achieve concentrations ranging from 0 µM (untreated control = CTRL) to 150 µM. The final DMSO concentration was kept below 0.3%. Cell viability was evaluated at up to 72 h post-treatment. Images were acquired 48 h after treatments by means of a light phase-contrast microscope equipped with a camera (Leica). Images were acquired and analyzed by the Leica Application Suite LAS EZ version 3.4 (Leica, Wetzlar, Germany).
(§2) BEAS and A549 cells were seeded in 96-well culture-treated plates (Falcon®, Corning Incorporated, Brooklyn, NY, USA) at a density of 0.5 × 10^4 cells/well. Untreated cells were set as the experimental control, representing 100% of cell viability. Exposure times varied from 24 up to 72 h. At the established time points (24, 48 and 72 h), the exposure medium was replaced with fresh medium containing 0.5 mg/mL 3-(4,5-dimethylthiazol-2-yl)-2,5-diphenyltetrazolium bromide (MTT) (Merck, Darmstadt, Germany) and processed as previously reported. The optical density in each well was measured at a wavelength of 540 nm using a spectrophotometer (Thermo Fisher Scientific, Waltham, MA, USA). Each experiment was performed in triplicate per experimental conditions (n = 3).

[2] = test system: bronchial adenocarcinoma cells (A549); test: cell viability (MTT assay), A549; type: cell-based, human; settings: for IC50: Homo sapiens, A549, 48 h exposure, nonlinear regression, predictive estimates
Description: The medium was supplemented with 10% heat-inactivated fetal bovine serum (FBS), 1% penicillin/streptomycin and 1% sodium pyruvate.
as §1, with “Next, the medium was removed, and cells were treated with tested compounds, dissolved in dimethyl sulfoxide (DMSO) to achieve concentrations ranging from 0 µM (untreated control = CTRL) to 150 µM.” left out
as §2

h-CA IX = h-CA IX (Homo sapiens, UniProt Q16790); test: stopped-flow CO2 hydrase assay, h-CA IX; settings: for selectivity on h-CA IX over h-CA XII (in words): comparison of Ki values
A549 cells [3] = test: cytotoxicity assay (LDH test); type: cell-based, human; settings: 24 h; for LDH released, fold increase respective to untreated cells: A549, 150 µM; for cytotoxicity occurrence (LDH release): A549, 0–150 µM
Description: as §1
To assess cytotoxicity in A549 cells after their treatment with the tested compounds, the amount of lactate dehydrogenase released into the culture medium was quantified using the CytoTox 96 non-radioactive cytotoxicity assay (Promega, Madison, WI, USA) according to the manufacturer’s instructions. Cell supernatants were collected from the same cultures processed for the MTT assay after 24 h of treatment and the optical density values obtained were normalized to those measured from the MTT assay.

A549 cells [4] = test: cell cycle analysis (PI flow cytometry); type: cell-based, human; settings: A549, 0–150 µM, 48 h; S phase cells increased vs untreated control
Description: as §1
[…] At each time point, cells were detached using StemPro™ Accutase™, pelleted by centrifugation, and fixed overnight at 4 °C in 70% v/v cold ethanol. After fixation, cells were processed as described elsewhere. The PI fluorescence was detected by a flow cytometer equipped with a 488 nm laser (CytoFlex flow cytometer, Beckman Coulter, CA, USA) in the FL-3 channel. A minimum of 10,000 events/sample were acquired and analyzed with the CytExpert Software, version 2.3 (Beckman Coulter, CA, USA), and the percentages of cells in the G1, S, or G2 phase of the cell cycle were calculated using the ModFit LT™ Software, version 5.0 (Verity Software House, Topsham, ME, USA).

h-CA I, sequence (P00915 whole entry): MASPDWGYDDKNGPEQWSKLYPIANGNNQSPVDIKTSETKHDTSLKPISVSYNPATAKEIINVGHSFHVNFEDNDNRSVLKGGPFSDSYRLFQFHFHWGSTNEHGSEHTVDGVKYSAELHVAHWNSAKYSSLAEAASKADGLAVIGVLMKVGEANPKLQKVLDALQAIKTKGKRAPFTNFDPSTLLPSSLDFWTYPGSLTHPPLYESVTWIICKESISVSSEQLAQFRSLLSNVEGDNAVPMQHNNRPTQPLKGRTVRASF

SMILES | Ki (h-CA I) [µM] | Ki (h-CA II) [µM] | Ki (h-CA XII) [µM] | IC50 [1] [µM] | SI (selectivity index, IC50 BEAS/IC50 A549 ratio) ([2]; 48 h) | IC50 [2] [µM] | Ki (h-CA IX) [µM] | LDH released, fold increase respective to untreated cells (A549 cells [3]) [fold] | selectivity on h-CA IX over h-CA XII (in words) (h-CA IX) | arrest of cell cycle progression (A549 cells [4]) | cytotoxicity occurrence (LDH release) (A549 cells [3]) | selectivity on h-CA XII over h-CA IX (h-CA XII; ratio of Ki values) [fold] | cell viability of BEAS cells ([1]; 1 µM, 48 h) | cell viability of A549 cells ([2]; 1 µM, 48 h)
Cc1ccccc1CNC(=O)c1cc2ccc(O)cc2oc1=O [Compound 5, 7-Hydroxy-N-(2-Methylbenzyl)-2-Oxo-2H-Chromene-3-Carboxamide] | > 100 | > 100 | 35.5 | 181.2 ± 1.2 | 0.730 | 248.2 ± 1.57 | 25.4 |  |  |  |  |  |  | 
Cc1cccc(CNC(=O)c2cc3ccc(O)cc3oc2=O)c1 [Compound 6, 7-Hydroxy-N-(3-Methylbenzyl)-2-Oxo-2H-Chromene-3-Carboxamide] | > 100 | > 100 | 9.3 | 117.9 ± 1.08 | 1.309 | 90 ± 1.07 | 82.5 |  |  |  |  |  |  | 
Cc1ccc(CNC(=O)c2cc3ccc(O)cc3oc2=O)cc1 [Compound 7, 7-Hydroxy-N-(4-Methylbenzyl)-2-Oxo-2H-Chromene-3-Carboxamide] | > 100 | > 100 | 8.8 | 157.8 ± 1.07 |  | 85.8 ± 1.13 | 33.7 | ~2 |  |  |  |  |  | 
COc1ccc(CNC(=O)c2cc3ccc(O)cc3oc2=O)cc1 [Compound 9, 7-Hydroxy-N-(4-Methoxylbenzyl)-2-Oxo-2H-Chromene-3-Carboxamide] | > 100 | > 100 | 9.1 | 116 ± 1.22 |  | 68.2 ± 1.11 | 53.8 | ~3 |  |  |  |  |  | 
O=C(NCc1ccccc1Cl)c1cc2ccc(O)cc2oc1=O [Compound 19, N-(2-Chlorobenzyl)-7-Hydroxy-2-Oxo-2H-Chromene-3-Carboxamide] | > 100 | > 100 | 64.9 | 40.7 ± 1.1 | 1.271 | 32 ± 1.22 | 19.3 |  | about three times more active on h-CA IX |  |  |  |  | 
O=C(NCc1ccc(Cl)cc1Cl)c1cc2ccc(O)cc2oc1=O [Compound 22, N-(2,4-Dichlorobenzyl)-7-Hydroxy-2-Oxo-2H-Chromene-3-Carboxamide] | > 100 | > 100 | 84.1 | 95.8 ± 1.07 | 1.150 | 83.3 ± 1.08 | 22 |  |  |  |  |  |  | 
O=C(NCc1ccc(Cl)c(Cl)c1)c1cc2ccc(O)cc2oc1=O [Compound 23, N-(3,4-Dichlorobenzyl)-7-Hydroxy-2-Oxo-2H-Chromene-3-Carboxamide] | > 100 | > 100 | 21 | 73.4 ± 1.1 |  | 39.5 ± 1.06 | 46.2 |  |  | able to arrest cells at the G1/S checkpoint | None of the compounds administered displayed cytotoxicity |  |  | 
O=C(NCCc1ccccc1Cl)c1cc2ccc(O)cc2oc1=O [Compound 29, N-(2-Chlorophenethyl)-7-Hydroxy-2-Oxo-2H-Chromene-3-Carboxamide] | > 100 | > 100 | 43.1 | 77.5 ± 1.08 | 1.386 | 55.9 ± 1.12 | 5.5 |  | good selectivity against h-CA IX over h-CA XII |  |  |  |  | 
O=C(NCCc1cccc(Cl)c1)c1cc2ccc(O)cc2oc1=O [Compound 30, N-(3-Chlorophenethyl)-7-Hydroxy-2-Oxo-2H-Chromene-3-Carboxamide] | > 100 | > 100 | 55.8 | 87.4 ± 1.06 | 1.465 | 59.7 ± 1.07 | 7.5 |  | good selectivity against h-CA IX over h-CA XII |  |  |  |  | 
O=C(c1cc2ccc(O)cc2oc1=O)N1CCN(c2ccccc2)CC1 [Compound 32, 7-Hydroxy-3-(4-Phenylpiperazine-1-Carbonyl)-2H-Chromen-2-One] | > 100 | > 100 | 9.1 | 399.7 ± 1.68 | 2.547 | 156.9 ± 1.12 | 49.3 |  |  |  |  | ~5 |  | 
Cc1ccc(N2CCN(C(=O)c3cc4ccc(O)cc4oc3=O)CC2)cc1C [Compound 38, 3-(4-(3,4-Dimethylphenyl)piperazine-1-Carbonyl)-7-Hydroxy-2H-Chromen-2-One] | > 100 | > 100 | 9.2 | 187.4 ± 1.27 | 3.747 | 50 ± 1.28 | 70.3 |  |  | able to arrest cells at the G1/S checkpoint | None of the compounds administered displayed cytotoxicity |  |  | 
COc1ccc(N2CCN(C(=O)c3cc4ccc(O)cc4oc3=O)CC2)cc1 [Compound 44, 7-Hydroxy-3-(4-(4-Methoxyphenyl)piperazine-1-Carbonyl)-2H-Chromen-2-One] | > 100 | > 100 | 22.5 | 203.5 ± 1.19 | 1.888 | 108 ± 1.28 | 32.8 |  |  |  |  |  |  | 
O=C(c1cc2ccc(O)cc2oc1=O)N1CCN(c2ccc(C(F)(F)F)cc2)CC1 [Compound 45, 3-(4-(4-Trifluoromethylphenyl)piperazine-1-Carbonyl)-7-Hydroxy-2H-Chromen-2-One] | > 100 | > 100 | 8.4 | 53.9 ± 1.07 | 2.096 | 25.7 ± 1.14 | 22.6 |  |  |  |  |  |  | 
COc1cccc2c1C(=O)c1c(O)c3c(c(O)c1C2=O)C[C@@](O)(C(=O)CO)C[C@@H]3O[C@H]1C[C@H](N)[C@H](O)[C@H](C)O1 [doxorubicin, reference compound] |  |  |  |  |  |  |  |  |  |  |  |  | dramatically decreased | dramatically decreased
